The text below walks through data of patent US20230339896A1, “HPK1 INHIBITORS AND USES THEREOF” (QILU REGOR THERAPEUTICS INC., priority 2020, published 2023).

In this assay the test system is Human Pan T cells. The experiment in a line: IL2 & IFN-γ released by human pan T cell (ELISA). It counts as cell-based. Conditions: for EC50 / Human Pan T cells EC2x (nM, IL-2): IL-2, anti-CD3/CD28 stimulation, 48 hours; for Human Pan T cells EC2x (nM, IL-2): concentration giving 200% response (2 folds) over DMSO control; for Max fold change: IL-2 response over DMSO control; for Max fold change / efficacy in inducing IL-2 production: human pan T cells. From the text:
This example is an assay method that can be used to determine compound effects on IL2 & IFN-γ release using pan T cells and ELISA assay format.
Procedures for Pan T isolation and Reagent preparation (Day 0): • 1. Cell Growth Medium: • RPMI1640: ATCC, Cat# 30-2001 • 10% FBS: Gibco, Cat# 10099141 • 1% Pen-Strep: Gibco, Cat # 15140122 • 1% Non-essential amino: Gibco, Cat #11140050 • Beta- Mercaptoethanol: Gibco, Cat#21985023 • 2. Pan T isolation buffer preparation: • Prepare a solution containing phosphate-buffered saline (PBS), pH 7.2, 0.5% bovine serum albumin (BSA), and 2 mM EDTA by diluting MACS® BSA Stock Solution (# 130-091-376) 20 times with autoMACS® Rinsing Solution. Keep buffer at 4° C. Degas buffer before use, as air bubbles could block the column.
• 3. Thawing of frozen PBMC • 1) Pre-heat medium at 37° C. water bath. • 2) Rapidly thaw cells in 37° C. water bath. • 3) Add the pre-warmed medium into 15 mL tube. Transfer cells to the tube. • 4) 300 × g centrifuge for 8 min. (centrifuge increase 0, decrease 0). • 5) Wash the PBMC using Rinsing buffer. • 6) Centrifuge PBMC at 300 × g for 8 min, wash it twice (centrifuge increase 9, decrease 1). • 7) Resuspend the cells with Pan T cells isolation buffer and count cells number. • 4. Pan T cells isolation: • Cell staining with microbead cocktail • 1) Prepare cells and determine cell number. Filter cells by 70 µm cell strainer. • 2) Resuspend cell pellet in 40 µL of buffer per 10^7 total cells. • 3) Add 10 µL of Pan T Cell Biotin-Antibody Cocktail per 10^7 total cells. • 4) Mix well and incubate for 10 minutes in the refrigerator (ice). • 5) Add 30 µL of buffer per 10^7 total cells. • 6) Add 20 µL of Pan T Cell MicroBead Cocktail per 10^7 total cells. • 7) Mix well and incubate for 15 minutes in the refrigerator (ice). • 8) Proceed to subsequent magnetic cell separation.
Subsequent manual cell separation: • 1) Place LS Column in the magnetic field of a suitable MACS Separator. For details refer to the respective MACS Column data sheet. • 2) Prepare column by rinsing with 3 mL of buffer. • 3) Apply cell suspension onto the column. Collect flow-through, which represents the enriched T cells. • 4) Wash column with 5 mL of buffer. Collect unlabeled cells that pass through, representing the enriched T cells.
Reminder: Always wait until the column reservoir is empty before proceeding to the next step. • 5. Pan T cell FACS: • 1) Take out 50 µL of PBMC and Pan T cells to FACS tubes respectively. • 2) Incubate cells with anti-human CD3/CD4/CD8 antibodies (1 µL/1 µL/1 µL /tube) for 20 min at 4° C. For unstained control, incubate cells with FACS staining buffer. • 3) Wash 2 times with cold staining buffer (PBS with 0.2%BSA and 1 mM EDTA). • 4) Run FACS. Gate CD3^+, CD3^+CD4^+, and CD3^+CD8^+ population for % analysis. • 5) If the purity of Pan T cells is higher than 90%, dilute cell suspension to 1 million cells/mL with the appropriate volume of Cell Culture Media. • 6) Dispense the cell suspension into a sterile, disposable reservoir for future use.
Procedures for preparation of compounds and anti-human CD3/CD28 (Day 0): • 1. Compound preparation • Compound serial dilution (source plate 1000×) • Compounds are solubilized in 100% DMSO to a concentration of 10 mM. Then they were 3-fold serially diluted to 8-point doses. • 4× Compound dose preparation (inter plate: Corning-3599): • Prepare 4× compound solution in culture medium. Pipet up and down. For the ZPE control, prepare 0.4% DMSO (4×) in culture medium. For the HPE control, prepare 0.4 µM of RGT003-026 (4×) in culture medium. • 2. Anti-human CD3 (stock conc. 6.76 mg/ml): stored at 4° C. • 1) Dilute anti-human CD3 with PBS to final conc. of 0.5 µg/mL. • 2) Add 50 µL /well of CD3 to each well, except for the positive and negative control wells. […] Rinse each well twice with 200 µL of sterile PBS each time. • 3. […]
(ELISA stands for enzyme-linked immunosorbent assay.)

Broadly, the EC50 is the concentration at which the effect is half-maximal. For the molecule `COc1cc2c(cc1Nc1ncc(Cl)c(N3CC(C)(CC(=O)O)c4ccc(F)cc43)n1)CN(C)CC2` (stereo not shown) [Compound 10, reference compound], the “Human Pan T cells EC2x (nM, IL-2)” value is recorded as 15.6 (N = 5) nM and the Max fold change is recorded as 3.05 (N = 5). Besides, the EC50 (Homo sapiens, T-cell) amounted to 17.4 nM.
With `COc1cc2c(cc1Nc1ncc(Cl)c(N3CC(C(=O)O)c4ccccc43)n1)CN(C)CC2` (stereo not shown) [Compound 7, reference compound], the “Human Pan T cells EC2x (nM, IL-2)” value is on record as 338 (N = 6) nM and the Max fold change is on record as 3.2 (N = 6). In addition, the EC50 (Homo sapiens, T-cell) was found to be 278 nM.
For `CN1CCc2cc(F)c(Nc3ncc(Cl)c(N4CC(C)(CC(=O)O)c5ccccc54)n3)cc2C1` (stereo not shown) [Example 4, 2-(1-(5-chloro-2-((6-fluoro-2-methyl-1,2,3,4-tetrahydroisoquinolin-7-yl)amino)pyrimidin-4-yl)-3-methylindolin-3-yl)acetic acid], the “Human Pan T cells EC2x (nM, IL-2)” value is on record as 20.5 (N = 2) nM; the Max fold change is given as 3.84 (N = 2); the “efficacy in inducing IL-2 production” value is recorded as “good efficacy”. Also, where the note is “Homo sapiens, T-cell”, the EC50 was determined as 31.5 nM.
With `COc1cc2c(cc1Nc1ncc(Cl)c(N3CC(C)(CC(=O)O)c4ccccc43)n1)CN(C)CC2` (single isomer, unassigned) [Example 2, (R)-2-(1-(5-chloro-2-((6-methoxy-2-methyl-1,2,3,4-tetrahydroisoquinolin-7-yl)amino)pyrimidin-4-yl)-3-methylindolin-3-yl)acetic acid or (S)-2-(1-(5-chloro-2-((6-methoxy-2-methyl-1,2,3,4-tetrahydroisoquinolin-7-yl)amino)pyrimidin-4-yl)-3-methylindolin-3-yl)acetic acid], the “Human Pan T cells EC2x (nM, IL-2)” value is 12.5 (N = 10) nM; the Max fold change was 3.2 (N = 10); the “efficacy in inducing IL-2 production” value is reported as “good efficacy”. Moreover, for the setting “Homo sapiens, T-cell”, the EC50 turned out to be 16.2 nM.
On to `COc1cc2c(cc1Nc1ncc(Cl)c(N3CC(C)(CC(=O)O)c4ccccc43)n1)CN(C)CC2` (stereo not shown) [Example 1, 2-(1-(5-chloro-2-((6-methoxy-2-methyl-1,2,3,4-tetrahydroisoquinolin-7-yl)amino)pyrimidin-4-yl)-3-methylindolin-3-yl)acetic acid], for which the “Human Pan T cells EC2x (nM, IL-2)” value was 28 (N = 5) nM; the Max fold change is 3.98 (N = 5); the “efficacy in inducing IL-2 production” value is listed as “good efficacy”. Also, where the note is “Homo sapiens, T-cell”, the EC50 came to 50 nM.
As to `COc1cc2c(cc1Nc1ncc(Cl)c(N3CC(CC(=O)O)c4ccccc43)n1)CN(C)CC2` (stereo not shown) [Compound 8, reference compound], the “Human Pan T cells EC2x (nM, IL-2)” value is 240 (N = 2) nM and the Max fold change is listed as 3.29 (N = 2). The EC50 (Homo sapiens, T-cell) came out at 275 nM.
For the molecule `CN1CCc2cc(F)c(Nc3ncc(Cl)c(N4C[C@](C)(CC(=O)O)c5ccccc54)n3)cc2C1` (single isomer, unassigned) [Example 5, (R)-2-[1-[5-chloro-2-[(6-fluoro-2-methyl-3,4-dihydro-1H-isoquinolin-7-yl)amino]pyrimidin-4-yl]-3-methyl-indolin-3-yl]acetic acid or (S)-2-[1-[5-chloro-2-[(6-fluoro-2-methyl-3,4-dihydro-1H-isoquinolin-7-yl)amino]pyrimidin-4-yl]-3-methyl-indolin-3-yl]acetic acid], the EC50 is 17.4 nM; the “Human Pan T cells EC2x (nM, IL-2)” value was determined as 7.5 nM; the Max fold change is recorded as 3.88; the “efficacy in inducing IL-2 production” value was “good efficacy”.
